Measurements reported in US20240391931A1 (Bristol-Myers Squibb Company, priority 2021, published 2024).
Where a name gives a salt, the structure may show the parent alone. Read-outs that look alike come from different tables or passages of the source.

What was measured:
EGFR = EGFR (Homo sapiens, UniProt P00533); test: EGFR signaling (pEGFR Tyr1068/total EGFR MSD) in A431 cells; assay type: cell-based; set-up: endogenous in cells; host or cells: A431, N87; settings: for Selectivity A431 EC50/BT474 EC50: ratio A431 pEGFR EC50 to BT474 pHER2 EC50; for Selectivity A431 EC50/HEKYVMA EC50: ratio A431 pEGFR EC50 to HEK YVMA pHER2 EC50
EGFR, sequence (P00533 25-1210): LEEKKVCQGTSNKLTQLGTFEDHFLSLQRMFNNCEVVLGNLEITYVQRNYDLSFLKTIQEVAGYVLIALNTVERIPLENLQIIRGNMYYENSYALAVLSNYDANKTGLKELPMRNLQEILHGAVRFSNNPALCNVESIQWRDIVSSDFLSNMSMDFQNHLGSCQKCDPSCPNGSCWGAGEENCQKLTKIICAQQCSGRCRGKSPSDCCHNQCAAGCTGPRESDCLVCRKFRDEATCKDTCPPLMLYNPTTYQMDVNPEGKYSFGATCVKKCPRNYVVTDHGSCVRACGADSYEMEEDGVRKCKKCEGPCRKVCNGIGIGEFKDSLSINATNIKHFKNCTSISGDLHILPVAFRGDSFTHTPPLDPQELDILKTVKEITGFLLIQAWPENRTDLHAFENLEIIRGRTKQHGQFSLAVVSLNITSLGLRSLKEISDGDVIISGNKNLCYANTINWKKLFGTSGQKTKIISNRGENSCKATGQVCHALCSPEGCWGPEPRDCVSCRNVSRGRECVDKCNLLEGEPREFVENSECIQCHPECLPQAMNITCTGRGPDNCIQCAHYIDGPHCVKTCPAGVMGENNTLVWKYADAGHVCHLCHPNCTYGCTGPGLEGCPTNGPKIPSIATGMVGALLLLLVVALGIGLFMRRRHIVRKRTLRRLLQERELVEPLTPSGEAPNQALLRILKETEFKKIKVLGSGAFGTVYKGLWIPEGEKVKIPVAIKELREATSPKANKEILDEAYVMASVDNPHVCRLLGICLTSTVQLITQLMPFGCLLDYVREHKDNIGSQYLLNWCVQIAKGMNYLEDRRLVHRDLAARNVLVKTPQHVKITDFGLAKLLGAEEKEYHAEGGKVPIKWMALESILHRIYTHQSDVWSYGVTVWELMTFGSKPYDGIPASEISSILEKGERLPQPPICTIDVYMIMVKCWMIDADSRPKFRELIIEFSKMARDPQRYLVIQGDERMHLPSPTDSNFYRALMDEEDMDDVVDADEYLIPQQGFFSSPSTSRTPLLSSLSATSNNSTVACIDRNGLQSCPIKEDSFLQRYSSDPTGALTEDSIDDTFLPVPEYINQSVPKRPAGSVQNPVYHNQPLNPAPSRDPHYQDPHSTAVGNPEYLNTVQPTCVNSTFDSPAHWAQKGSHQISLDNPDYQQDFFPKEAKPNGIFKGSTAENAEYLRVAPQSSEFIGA
Protocol: In addition to the engineered cell lines, the following cell lines were used: BT474 (human breast carcinoma), N87 (human gastric carcinoma), NCI-H1781 (human lung adenocarcinoma), and A431 (human epidermoid carcinoma); all cell lines were obtained from the American Type Culture Collection (ATCC, Manassas, VA). NCI-H1781 were grown in complete RPMI 1640 (Life Technologies, Carlsbad, CA) supplemented with 15% fetal bovine serum (FBS, Life Technologies, Carlsbad, CA) and 1% Penicillin-Streptomycin (P/S, Life Technologies, Carlsbad, CA). N87 cells were grown in complete RPMI 1640 supplemented with 10% FBS and 1% P/S. BT474 and A431 cells were grown in DMEM (Life Technologies, Carlsbad, CA) supplemented with 10% FBS and 1% P/S. All cells were maintained and propagated in a humidified 5% CO2 incubator at 37° C.
A431 Cells were plated in 96-well tissue-culture treated plates in full media for 6 h, then starved with media containing 0.1% FBS for overnight. Media was replaced with low serum media (1% FBS) containing compound at 10, 3.3, 1.1, 0.37, 0.12, 0.041, 0.014, 0.005 μM or DMSO control (0.1%). Cells were incubated for 1.5 hr, then stimulated with 100 ng/mL human EGF (PeproTech, Rocky Hill, NJ) for 10 minutes. Cells were washed with cold PBS, and lysed for 30 min on ice in complete MSD lysis buffer (prepared as described in HER2 Signaling Method); lysates were stored at −70° C. until further analysis. EGFR signaling was evaluated using phospho (Tyr 1068)/total EGFR whole cell lysate kit (Meso-Scale Discovery, Gaithersburg, MD). The phospho EGFR signal was normalized to total EGFR for each sample; results are reported as % DMSO control. The normalized data was fitted using a sigmoidal curve analysis program (Graph Pad Prism version 6) with variable Hill slope to determine EC50 values. The results are provided in Table 4, under column titled “A431-pEGFR EC50”.

HER2YVMA = HER2YVMA (Homo sapiens, UniProt P04626, INS775YVMA); test: HER2 signaling (pHER2) in Hek293-HER2YVMA cells; assay type: cell-based; set-up: expressed in transfected cells; host or cells: HEK293 (pool), Ba/F3 (clones), BEAS2B (clones); lentiviral vector pCDH-CMV-MCS-EF1-Neo; settings: 1.5 hr compound, 1% FBS, read-out: HEKYVMA pHER2 EC50
HER2YVMA, sequence (P04626 with tags, fused parts or gaps INS775YVMA): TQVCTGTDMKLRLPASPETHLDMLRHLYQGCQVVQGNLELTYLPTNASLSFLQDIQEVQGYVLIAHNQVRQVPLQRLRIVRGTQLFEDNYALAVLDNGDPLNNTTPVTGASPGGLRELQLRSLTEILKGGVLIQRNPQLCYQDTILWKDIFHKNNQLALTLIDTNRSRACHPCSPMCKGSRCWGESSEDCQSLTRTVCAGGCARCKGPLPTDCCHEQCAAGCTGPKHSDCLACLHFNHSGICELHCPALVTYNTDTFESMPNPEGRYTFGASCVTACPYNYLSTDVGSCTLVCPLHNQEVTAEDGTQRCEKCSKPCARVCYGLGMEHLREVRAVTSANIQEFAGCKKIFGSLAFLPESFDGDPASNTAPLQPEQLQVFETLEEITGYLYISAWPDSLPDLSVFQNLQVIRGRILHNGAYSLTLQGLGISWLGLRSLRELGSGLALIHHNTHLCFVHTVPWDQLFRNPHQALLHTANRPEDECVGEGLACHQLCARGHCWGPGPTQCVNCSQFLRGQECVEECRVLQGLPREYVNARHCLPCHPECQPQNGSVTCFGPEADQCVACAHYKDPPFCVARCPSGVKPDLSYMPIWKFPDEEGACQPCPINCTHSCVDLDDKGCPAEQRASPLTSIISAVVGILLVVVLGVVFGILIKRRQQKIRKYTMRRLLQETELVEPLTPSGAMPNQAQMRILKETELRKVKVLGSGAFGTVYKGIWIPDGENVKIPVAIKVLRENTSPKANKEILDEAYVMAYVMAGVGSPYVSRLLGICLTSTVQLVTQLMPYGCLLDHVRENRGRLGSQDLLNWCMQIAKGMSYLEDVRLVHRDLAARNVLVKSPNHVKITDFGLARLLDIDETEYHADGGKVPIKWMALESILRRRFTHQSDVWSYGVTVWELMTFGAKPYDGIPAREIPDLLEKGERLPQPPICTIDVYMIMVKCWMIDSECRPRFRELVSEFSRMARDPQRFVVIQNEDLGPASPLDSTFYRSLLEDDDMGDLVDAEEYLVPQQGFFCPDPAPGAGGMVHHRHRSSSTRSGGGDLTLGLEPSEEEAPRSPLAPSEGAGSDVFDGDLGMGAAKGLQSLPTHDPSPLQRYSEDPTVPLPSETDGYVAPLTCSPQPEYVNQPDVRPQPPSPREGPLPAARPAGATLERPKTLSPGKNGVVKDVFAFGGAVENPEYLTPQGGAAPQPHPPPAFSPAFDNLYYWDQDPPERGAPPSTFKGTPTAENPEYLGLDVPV
Protocol: Cell culture, plasmid cloning, and lentiviral transduction were carried out according to standard procedures. The Human HER2 cDNA construct in pCMV6-Entry for the HER2 wildtype (WT) expression was obtained from Origene. The HER2 cDNA including the 12-nucleotide insertion corresponding to YVMA insertion (HER2YVMA) was codon optimized, synthesized and cloned by GenScript (Piscataway, NJ) in pcDNA3.1. The lentiviral constructs expressing HER2YVMA and HER2 WT were sub-cloned using PCR at System Biosciences (SBI, Mountainview, CA) into lentiviral vectors pCDH-CMV-MCS-EF1-Neo and lentiviral particles were generated.
Engineered lines expressing HER2YVMA and HER2 WT were prepared in HEK293 (human embryonic kidney cells), Ba/F3 (Interleukin 3 (IL3)-dependent murine pro B cell line), and BEAS2B (primary immortalized human bronchial epithelial cell line). Ba/F3, BEAS2B, and HEK293 cells were obtained from the American Type Culture Collection (ATCC, Manassas, VA). Parental Ba/F3 cells were grown in suspension in complete RPMI 1640 supplemented with 10% FBS and 1% P/S and 10 ng/ml interleukin 3 (IL3, Sigma-Aldrich). Hek293 and BEAS2B cells were grown as monolayers in DMEM supplemented with 10% FBS and 1% P/S. All cells were maintained and propagated in a humidified 5% CO2 incubator at 37° C.
To generate Ba/F3, BEAS2B, and Hek-293 cells engineered with lentivirus to express HER2 WT or HER2YVMA, the cells were transduced with lentiviruses at multiplicity of infection (MOI) of 1 or 10; transduced cells were selected and maintained with G418 ([…]) (Geneticin, Life Technologies, Carlsbad, CA). Ba/F3 engineered cells were subjected to gradual withdrawal of interleukin 3 (IL-3, Sigma-Aldrich). After selection, IL3 independent Ba/F3 HER2YVMA, and BEAS2B HER2YVMA cells were cloned by limiting dilution. Hek293 HER2YVMA cells were used as pool. HER2 and phospho HER2 levels were confirmed by flow cytometery and immunoassay (MSD, Meso-Scale Discovery, Rockville, Maryland).
HER2 signaling was assessed in BT474 and N87 cell lines which endogenously overexpress the HER2 wildtype (WT) protein, in NCI-H1781 cells which endogenously expresses a HER2 mutant protein containing a VC insertion in the kinase domain (HER2VC or G776delinsVC), and in engineered cell lines transduced to express the Her2 mutant protein containing the YVMA insertion (Hek293-HER2YVMA and BEAS2B-HER2YVMA).
BT474, N87, and NCI-H1781 were plated in 96-well tissue-culture treated plates (Corning Costar, Sigma-Aldrich) in full media and incubated overnight. Hek293-HER2YVMA and BEAS2B-HER2YVMA cells were plated in 96-well poly-D-lysine treated plates (BD Bioscience, San Jose, CA). For treatment with test compounds, the media was replaced with corresponding low serum media (1% FBS) containing test compound at 1.1, 0.37, 0.12, 0.041, 0.014, 0.005, 0.0014, 0.0005 μM or DMSO control (0.1%). Cells were incubated with compound for 1.5 hr at 37° C. After compound treatment, the media was removed and cells were lysed for 30 min on ice in complete MSD lysis buffer (prepared using MSD base lysis buffer (Meso-Scale Discovery) supplemented with cOmplete, EDTA-free Protease inhibitor cocktail (Roche), Phosphatase Inhibitor Cocktails 2 and 3 (Sigma-Aldrich), and 1 mM PMSF (Sigma-Aldrich)). Lysates were stored at −70° C. until further analysis.
HER2 signaling was evaluated using phospho (Tyr1248)/total ErbB2 whole cell lysate MSD plates (Meso-Scale Discovery, Gaithersburg, MD). The phospho HER2 signal was normalized to total HER2 for each sample; results are reported as % DMSO control. The normalized data was fitted using a sigmoidal curve analysis program (Graph Pad Prism version 6) with variable Hill slope to determine EC50 values.
The HER2 signaling results are provided in Table 4, under columns titled “BT474-pHER2 EC50”, “N87-pHER2 EC50”, and “NCI-H1781-pHER2 EC50”. […]

[1] = A431 cells, read-out: A431 pEGFR EC50

Structure (SMILES) | EC50 (EGFR; [1]) | Selectivity A431 EC50/BT474 EC50 (EGFR) | Selectivity A431 EC50/HEKYVMA EC50 (EGFR) | EC50 (HER2YVMA) | EC50 (EGFR; A431 pEGFR EC50, A431 cells)
Cc1ccc(Oc2ccc(Nc3ncnc4sc5c(c34)C(C)CN(C(=O)C=CCN(C)C(C)(C)C)C5)cc2C)cn1 (single isomer, unassigned) [Compound 178] | 0.1 to 1 µM | D (D: ≥ 5 and < 10) | E (E: >1 and < 5) | < 0.1 µM | 
COc1cc(Nc2ncnc3sc4c(c23)CCN(C(=O)/C=C/CN(C)C)C4)ccc1Oc1ccccc1 [Compound 7, (E)-4-(dimethylamino)-1-(4-((3-methoxy-4-phenoxyphenyl)amino)-5,8-dihydropyrido[4′,3′:4,5]thieno[2,3-d]pyrimidin-7(6H)-yl)but-2-en-1-one] | < 0.1 µM | D (D: ≥ 5 and < 10) | F (F: < 1) | < 0.1 µM | 
Cc1ccc(Oc2ccc(Nc3ncnc4sc5c(c34)CCN(C(=O)/C=C/CN(C)C)C5)cc2C)cn1 [Compound 8, (E)-4-(Dimethylamino)-1-(4-((3-methyl-4-((6-methylpyridin-3-yl)oxy)phenyl)amino)-5,6-dihydropyrido[4′,3′:4,5]thieno[2,3-d]pyrimidin-7(8H)-yl)but-2-en-1-one] | < 0.1 µM | C (C: ≥ 10 and < 20) | C (C: ≥ 10 and < 20) | < 0.1 µM | 
Cc1ccc(Oc2ccc(Nc3ncnc4sc5c(c34)CCN(C(=O)/C=C/CN3CC4CC(C3)O4)C5)cc2C)cn1 [Compound 15] | 0.1 to 1 µM | B (B: ≥ 20 and < 100) | B (B: ≥ 20 and < 100) | < 0.1 µM | 
Cc1ccc(Oc2ccc(Nc3ncnc4sc5c(c34)CCN(C(=O)/C=C/CN3CC4CCC(C4)C3)C5)cc2C)cn1 [Compound 16, (E)-4-(3-azabicyclo[3.2.1]octan-3-yl)-1-(4-((3-methyl-4-((6-methylpyridin-3-yl)oxy)phenyl)amino)-5,8-dihydropyrido[4′,3′:4,5]thieno[2,3-d]pyrimidin-7(6H)-yl)but-2-en-1-one benzenesulfonate salt] |  | D (D: ≥ 5 and < 10) | D (D: ≥ 5 and < 10) | < 0.1 µM | 0.1 to 1 µM
Cc1ccc(Oc2ccc(Nc3ncnc4sc5c(c34)CCN(C(=O)/C=C/CN3CCOCC3)C5)cc2C)cn1 [Compound 17, (E)-1-(4-((3-Methyl-4-((6-methylpyridin-3-yl)oxy)phenyl)amino)-5,6-dihydropyrido[4′,3′:4,5]thieno[2,3-d]pyrimidin-7(8H)-yl)-4-morpholinobut-2-en-1-one] | 0.1 to 1 µM | C (C: ≥ 10 and < 20) | A (A: ≥100) | < 0.1 µM | 

Continued, in another order:

EC50 (EGFR; [1]) | Selectivity A431 EC50/BT474 EC50 (EGFR) | Selectivity A431 EC50/HEKYVMA EC50 (EGFR) | EC50 (HER2YVMA) | Structure (SMILES) | EC50 (EGFR; A431 pEGFR EC50, A431 cells)
< 0.1 µM | B (B: ≥ 20 and < 100) | E (E: >1 and < 5) | < 0.1 µM | Cc1ccc(Oc2ccc(Nc3ncnc4sc5c(c34)C(C)CN(C(=O)C=CCN(C)C(C)(C)C)C5)cc2C)cn1 (single isomer, unassigned) [Compound 179] | 
< 0.1 µM | E (E: >1 and < 5) | E (E: >1 and < 5) | < 0.1 µM | C=CC(=O)N1CCc2c(sc3ncnc(Nc4ccc(Oc5cccnc5)c(Cl)c4)c23)C1 [Compound 6, 1-(4-((3-chloro-4-(pyridin-3-yloxy)phenyl)amino)-5,8-dihydropyrido[4′,3′:4,5]thieno[2,3-d]pyrimidin-7(6H)-yl)prop-2-en-1-one] | 
< 0.1 µM | E (E: >1 and < 5) | E (E: >1 and < 5) | < 0.1 µM | C=CC(=O)N1CCc2c(sc3ncnc(Nc4ccc(Oc5cccnc5)c(C)c4)c23)C1 [Compound 11, 1-(4-((3-methyl-4-(pyridin-3-yloxy)phenyl)amino)-5,8-dihydropyrido[4′,3′:4,5]thieno[2,3-d]pyrimidin-7(6H)-yl)prop-2-en-1-one] | 
1 to 10 µM | A (A: ≥100) | B (B: ≥ 20 and < 100) | < 0.1 µM | Cc1cc(Nc2ncnc3sc4c(c23)CCN(C(=O)/C=C/CN2CCOCC2)C4)ccc1Oc1ccc2ncnn2c1 [Compound 12] | 
0.1 to 1 µM | C (C: ≥ 10 and < 20) | C (C: ≥ 10 and < 20) | < 0.1 µM | Cc1ccc(Oc2ccc(Nc3ncnc4sc5c(c34)CCN(C(=O)/C=C/CN3CC4CCC(C3)O4)C5)cc2C)cn1 [Compound 13] | 
< 0.1 µM | D (D: ≥ 5 and < 10) | E (E: >1 and < 5) | < 0.1 µM | Cc1ccc(Oc2ccc(Nc3ncnc4sc5c(c34)CCN(C(=O)/C=C/CN3CC4CCC3C4)C5)cc2C)cn1 (stereo not shown) [Compound 14] | 
0.1 to 1 µM | B (B: ≥ 20 and < 100) | B (B: ≥ 20 and < 100) | < 0.1 µM | O=C(/C=C/CN1CCOCC1)N1CCc2c(sc3ncnc(Nc4ccc(Oc5ccc6ncnn6c5)c(Cl)c4)c23)C1 [Compound 18] | 
